Test results as given in patent publication US7115741B2, “4-thieno[2,3-D]pyrimidin-4-YL piperazine compounds” (priority 2001, dated 2006).

System: platelet ADP receptors
Test: ARB binding assay (platelet ADP receptor binding, [3H]2-MeS-ADP)
Parameters: species or system human
Details: relative activities of selected compounds in the ARB binding assay
Experimental: Utilizing the second assay the potency of inhibition of such compounds with respect to [^3H]2-MeS-ADP binding to whole platelets is determined. [^3H]2-MeS-ADP binding experiments are routinely performed with outdated human platelets collected by standard procedures at hospital blood banks. Apyrase-washed outdated platelets are prepared as follows (all steps at room temperature, if not indicated otherwise):
Outdated platelet suspensions are diluted with 1 volume of CGS and platelets pelleted by centrifugation at 1900×g for 45 minutes. Platelet pellets are resuspended at 3–6×10^9 platelets/ml in CGS containing 1 U/ml apyrase (grade V, Sigma, St. Louis, Mo.) and incubated for 15 minutes at 37° C. After centrifugation at 730×g for 20 minutes, pellets are resuspended in Hepes-Tyrode's buffer containing 0.1% BSA (Sigma, St. Louis, Mo.) at a concentration of 6.66×10^8 platelets/ml. Binding experiments are performed after >45 minutes resting of the platelets.
Alternatively, binding experiments are performed with fresh human platelets prepared as described in I.(Inhibition of ADP-Mediated Platelet Aggregation in vitro), except that platelets are resuspended in Hepes-Tyrode's buffer containing 0.1% BSA (Sigma, St. Louis, Mo.) at a concentration of 6.66×10^8 platelets/ml. Very similar results are obtained with fresh and outdated platelets.
A platelet ADP receptor binding assay using the tritiated potent agonist ligand [^3H]2-MeS-ADP (Jantzen, H. M. et al. (1999) Thromb. Hemost. 81:111–117) has been adapted to the 96-well microtiter format. In an assay volume of 0.2 ml Hepes-Tyrode's buffer with 0.1% BSA and 0.6% DMSO, 1×10^8 apyrase-washed platelets are preincubated in 96-well flat bottom microtiter plates for 5 minutes with serial dilutions of test compounds before addition of 1 nM [^3H]2-MeS-ADP ([^3H]2-methylthioadenosine-5′-diphosphate, ammonium salt; specific activity 48–49 Ci/mmole, obtained by custom synthesis from Amersham Life Science, Inc., Arlington Heights, Ill., or NEN Life Science Products, Boston, Mass.). Total binding is determined in the absence of test compounds. Samples for nonspecific binding may contain 10^−5 M unlabelled 2-MeS-ADP (RBI, Natick, Mass.). After incubation for 15 minutes at room temperature, unbound radioligand is separated by rapid filtration and two washes with cold (4–8° C.) Binding Wash Buffer (10 mM Hepes pH 7.4, 138 mM NaCl) using a 96-well cell harvester (Minidisc 96, Skatron Instruments, Sterling, Va.) and 8×12 GF/C glassfiber filtermats (Printed Filtermat A, for 1450 Microbeta, Wallac Inc., Gaithersburg, Md.). The platelet-bound radioactivity on the filtermats is determined in a scintillation counter (Microbeta 1450, Wallac Inc., Gaithersburg, Md.). Specific binding is determined by subtraction of non-specific binding from total binding, and specific binding in the presence of test compounds is expressed as % of specific binding in the absence of test compounds dilutions.

O=C(Cc1ccccc1)N1CCN(c2ncnc3sc(Cc4ccccc4)cc23)CC1 [Example 112, 2-phenyl-1-{4-[6-benzylthiopheno[3,2-e]pyrimidin-4-yl]piperazinyl} ethan-1-one]
Relative Activity: +++ (<10 micromolar)

CCc1cc2c(N3CCN(C(=O)/C=C/c4ccsc4)CC3)ncnc2s1 [Example 320, 1-[4-(6-Ethyl-thieno[2,3-d]pyrimidin-4-yl)-piperazin-1-yl]-3-thiophen-3-yl-propenone]
Relative Activity: + (>20 micromolar)

CCc1cc2c(N3CCN(C(=O)CCC(C)C)CC3)ncnc2s1 [Example 17, 1-[4-(6-ethylthiopheno[3,2-e]pyrimidin-4-yl)piperazinyl]-4-methylpentan-1-one]
Relative Activity: +++ (<10 micromolar)

CCc1cc2c(N3CCN(C(=O)CCCC(=O)O)CC3)ncnc2s1 [Example 390, 5-[4-(6-Ethyl-thieno[2,3-d]pyrimidin-4-yl)-piperazin-1-yl]-5-oxo-pentanoic acid]
Relative Activity: + (>20 micromolar)

CCc1cc2c(N3CCN(C(=O)Cc4ccccc4)CC3)nc(C)nc2s1 [Example 153, 1-[4-(6-ethyl-2-methylthiopheno[3,2-e]pyrimidin-4-yl)piperazinyl]-2-phenylethan-1-one]
Relative Activity: +++ (<10 micromolar)

CCc1cc2c(N3CCN(C(=O)c4ccc(-c5ccccc5)cc4)CC3)ncnc2s1 [Example 71, 4-(6-ethylthiopheno[3,2-e]pyrimidin-4-yl)piperazinyl 4-phenylphenyl ketone]
Relative Activity: +++ (<10 micromolar)

CCc1cc2c(N3CCN(C(=O)Cc4ccccc4)CC3C)ncnc2s1 (centres unmarked) [Example 193, 1-[4-(6-ethylthiopheno[3,2-e]pyrimidin-4-yl)-3-methylpiperazinyl]-2-phenylethan-1-one]
Relative Activity: +++ (<10 micromolar)

CCc1cc2c(N3CCN(C(=O)c4snnc4-c4ccccc4)CC3)ncnc2s1 [Example 348, [4-(6-Ethyl-thieno[2,3-d]pyrimidin-4-yl)-piperazin-1-yl]-(4-phenyl-[1,2,3]-thiadiazol-5-yl)-methanone]
Relative Activity: + (>20 micromolar)

CCc1cc2c(N3CCN(C(=O)Cc4ccccc4)C(C)C3)ncnc2s1 (centres unmarked) [Example 197, 1-[4-(6-ethylthiopheno[3,2-e]pyrimidin-4-yl)-2-methylpiperazinyl]-2-phenylethan-1-one]
Relative Activity: ++ (10–20 micromolar)

CCc1cc2c(N3CCN(C(=O)Cc4ccccc4)CC3)nc(SC)nc2s1 [Example 169, 1-[4-(6-ethyl-2-methylthiothiopheno[3,2-e]pyrimidin-4-yl)piperazinyl]-2-phenylethan-1-one]
Relative Activity: +++ (<10 micromolar)

CCc1cc2c(N3CCN(C(=O)c4ccncc4)CC3)ncnc2s1 [Example 362, [4-(6-Ethyl-thieno[2,3-d]pyrimidin-4-yl)-piperazin-1-yl]-pyridin-4-yl-methanone]
Relative Activity: + (>20 micromolar)
